Where a SMILES comes first, the peptide text is derived from it. The star is where a group is joined. Cbz = O=C(OCc1ccccc1)*
Legend:
IRS1 [1] = experiment: IRS1 degradation / protein stability in C2C12 myotubes (Western blotting); assay type: cell-based, mouse; details: for IRS1 degradation upon treatment: increasing concentration, along with protein synthesis inhibitor Emetin, dose-dependent
Procedure: Differentiated C2C12 myotubes are treated with increasing concentration of IGF1 or dexmethasome (DEX), a glucocorticoid that can lead to muscle atrophy, along with protein synthesis inhibitor Emetin (Eme). […] In C2C12 myotubes, IRS1 is rapidly degraded upon IGF1 treatment with a half-life of around 2 hours (FIGS. 4B and 4E).
Cells are washed twice with warm serum free DMEM and starved in serum free DMEM for 4 hours with an exchange of fresh medium in the middle. Then the signaling inhibitors are added to pretreat cells for 30 min before incubation with freshly prepared inhibitors with 10 nM IGF1 (the R3 form, Sigma, St. Louis, Mo.) or 10 μM Emetin (Sigma, St. Louis, Mo.) or 20 μM MG132 (Alexis Biochemicals, Carlsbad, Calif.) as specified for an additional 5 hours. Cells are rinsed two times with ice-cold PBS and harvested in ice-cold RIPA buffer with 10 μM MG132 and protease/phosphatase inhibitors tablets (Roche, Basel, Switzerland). Cell lysates are rotated at 4° C. for at least one hour, and spun for 10 min at 16,000×g in a micro centrifuge at 4° C. Protein concentrations of the supernatants are determined by BCA Protein Assay Kit (Pierce/Thermo Fisher Scientific, Rockford, Ill.). Equal amounts of proteins (10-20 μg) are loaded per lane on 4-12% Bis-Tris gels (Invitrogen, Carlsbad, Calif.) and transferred onto PVDF membranes (Millipore, Billerica, Mass.). Membranes are blocked in 10% (w/v) milk in TBST for 1 hour at room temperature, followed by incubation with primary antibody in TBST with 5% BSA at 4° C. for overnight. Secondary antibodies are incubated with membranes at room temperature for 1 hour. Immunoreactivity is detected by ECL and exposed to film or Kodak Image Station 4000R (Eastman Kodak Company, Rochester, N.Y.). Densitometry is analyzed using Kodak Molecular Imaging software, version 4.0.
Cells are washed twice with warm serum-free DMEM and starved in serum-free DMEM for 4 hours with an exchange of fresh medium in the middle. At time zero, 10 μM Emetin, or 100 μg/ml of cycloheximide, or 10 nM IGF1, or 20 μM MG132 are added to cells as specified. At the indicated time intervals, cells are rinsed twice with PBS and harvested in ice-cold RIPA buffer with 10 μM MG132 and protease/phosphatase inhibitors. Cell lysates are rotated at 4° C. for at least one hour, and spun for 10 min at 16,000×g in a micro centrifuge at 4° C. The supernatants are analyzed by western blotting.

Fbxo40 = Fbxo40 protein level after MG132 incubation (co-immunoprecipitation experiment, C2C12 myotubes); assay type: cell-based, mouse; details: 20 μM MG132
Source text: Ye et al. 2007 Gene 404: 53-60. We survey the FirstChoice Human Total RNA Panel by quantitative real-time PCR and find that Fbxo40 is highly expressed in heart and muscle (FIG. 3). Furthermore, its mRNA (FIG. 6B) and protein (FIG. 8A) is induced during differentiation of C2C12 cells, which coincides with the accelerated degradation of IRS1 in C2C12 myotubes. IRS1 and Rbx1 can be co-immunoprecipitated with antibody against Fbxo40 (FIG. 6C). […] We also use this immunoprecipitated Fbxo40-Rbx1 complex to ubiquitinate recombinant IRS1 in-vitro and find that IRS1 can be ubiquitinated in a time-dependent manner (FIG. 6D). In this experiment, we include six control reactions. The first four controls are the reactions carried out at 30° C. for 90 min with the omission of E1, or E2 (UbCH5c), or His6-Biotin-N-terminal Ubiquitin, or recombinant IRS1 respectively. The last two controls are full reactions carried out without immunoprecipitated Fbxo40 (with beads incubated with lysate without IgG or with nonspecific rabbit IgG). Poly-ubiquitinated IRS1 can be observed in full reactions after 60 min or 90 min at 30° C.
Alternatively, in the experiment of IRS1 and Rbx1 Co-Immunoprecipitation with Fbxo40, day 3 C2C12 myotubes are starved and treated with 10 nM IGF1 or 20 μM MG132 as described above. […]

IRS1 [2] = experiment: In-vivo ubiquitination assay and immunoprecipitation of IRS1 in C2C12 myotubes; assay type: cell-based, mouse; details: C2C12 myotubes overexpressing his-myc tagged ubiquitin, 10 nM IGF1
Procedure: Since ubiquitinated proteins are rapidly degraded in cells, in order to detect ubiquitinated IRS1 protein in the experiment shown in FIG. 4C, C2C12 myotubes are infected with an adenovirus overexpressing his-myc tagged ubiquitin and incubated with IGF1 along with MG132 or an isopeptidase inhibitor G5. IRS1 is immunoprecipitated with the rabbit polyclonal anti-IRS1 antibody (lanes 6, 8, 10, 12) or non-specific IgG (lanes 5, 7, 9, 11) as control. Poly-ubiquitination is detected with monoclonal anti-myc antibody against the his-myc tagged ubiquitin and is found to be specifically immunoprecipitated with IRS1 (FIG. 4C, upper panel). […] Note that in the upper panel of FIG. 4C, G5 treatment also causes an upper shift of his-myc tagged ubiquitin in comparison to MG132 treatment alone (compare lane 10 to lane 8). In agreement with the induced degradation of IRS1 upon IGF1 treatment, poly-ubiquitinated IRS1 also increases with IGF1 treatment (FIG. 4D, upper panel) despite that the total amount of ubiquitinated proteins in cells even decreased a little (FIG. 4D, lower panel).
A His-myc-ubiquitin adenoviral expression constructs are sent to Welgen Inc. (Worcester, Mass.) for production and purification. […] Protein concentration in the supernatant is determined by BCA analysis. […] An aliquot (20 μg) of the lysate is analyzed by Western blotting along with 100% of the eluate.

[3] = target: purified recombinant IRS1 protein (Millipore)
Sequence of purified recombinant IRS1 protein (Millipore) (P35568 whole entry): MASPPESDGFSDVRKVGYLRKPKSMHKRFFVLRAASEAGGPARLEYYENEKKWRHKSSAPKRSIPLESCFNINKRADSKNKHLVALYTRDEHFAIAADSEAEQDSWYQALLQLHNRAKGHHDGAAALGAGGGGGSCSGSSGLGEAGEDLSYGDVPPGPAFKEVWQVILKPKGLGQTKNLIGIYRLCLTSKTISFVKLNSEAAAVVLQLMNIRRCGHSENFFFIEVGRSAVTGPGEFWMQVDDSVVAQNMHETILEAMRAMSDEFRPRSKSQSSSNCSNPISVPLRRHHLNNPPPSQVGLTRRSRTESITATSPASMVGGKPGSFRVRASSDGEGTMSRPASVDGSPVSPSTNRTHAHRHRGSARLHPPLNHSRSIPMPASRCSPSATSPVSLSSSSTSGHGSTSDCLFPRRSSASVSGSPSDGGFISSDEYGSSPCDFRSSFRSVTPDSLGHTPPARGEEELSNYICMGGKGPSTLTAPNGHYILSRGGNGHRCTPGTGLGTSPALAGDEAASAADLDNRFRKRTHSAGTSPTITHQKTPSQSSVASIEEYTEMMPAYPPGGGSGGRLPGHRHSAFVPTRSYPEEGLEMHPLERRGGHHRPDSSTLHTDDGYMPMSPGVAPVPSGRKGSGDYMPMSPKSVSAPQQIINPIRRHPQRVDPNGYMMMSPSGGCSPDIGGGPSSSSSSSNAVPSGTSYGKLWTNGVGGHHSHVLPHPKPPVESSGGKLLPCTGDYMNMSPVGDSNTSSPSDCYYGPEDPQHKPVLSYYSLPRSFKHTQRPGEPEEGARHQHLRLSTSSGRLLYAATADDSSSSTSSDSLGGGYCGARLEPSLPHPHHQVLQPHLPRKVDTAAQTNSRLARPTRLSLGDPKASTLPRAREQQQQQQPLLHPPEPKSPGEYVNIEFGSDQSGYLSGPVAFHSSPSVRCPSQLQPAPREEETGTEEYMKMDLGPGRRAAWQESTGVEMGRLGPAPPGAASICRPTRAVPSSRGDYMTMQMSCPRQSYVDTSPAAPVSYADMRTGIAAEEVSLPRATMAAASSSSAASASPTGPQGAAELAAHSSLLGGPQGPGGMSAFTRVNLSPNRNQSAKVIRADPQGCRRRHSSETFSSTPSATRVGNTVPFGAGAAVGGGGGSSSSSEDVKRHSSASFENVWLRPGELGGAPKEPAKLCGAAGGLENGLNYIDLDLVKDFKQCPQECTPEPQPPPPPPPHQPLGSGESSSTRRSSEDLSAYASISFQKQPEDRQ

## C[C@@H]1C[C@H]2[C@@H]3CCC4=CC(=O)C=C[C@]4(C)[C@@]3(F)[C@@H](O)C[C@]2(C)[C@@]1(O)C(=O)CO [DEX, dexmethasome, reference compound]
IRS1 [1]
  IRS1 degradation upon treatment: not

## CC(C)C[C@@H](C=O)NC(=O)[C@H](CC(C)C)NC(=O)[C@H](CC(C)C)NC(=O)OCc1ccccc1 [MG132, reference compound] (Cbz-Leu-Leu-Leu-aldehyde)
Fbxo40
  Fbxo40 protein level after incubation with MG132: increases
IRS1 [1]; IGF1 treatment, 20 μM MG132
  stabilization of IRS1 protein: substantially stabilizes

## insulin-like growth factor-1 (IGF1)
IRS1 [1]; 10 nM IGF1
  half-life of IRS1 upon IGF1 treatment: around 2 hours
IRS1 [1]; IGF1 alone (no Emetin), slower kinetics
  protein level of IRS1 in cells treated with IGF1 alone: decreases
IRS1 [1]
  IRS1 degradation upon treatment: IRS1 is degraded
IRS1 [2]
  poly-ubiquitinated IRS1: increases

B1: Fbxo40, endogenous in C2C12 myotubes (protein)
chain: MGRARKPPPALHRHCEGCFNRHCHVPVEPSVSCLVISCHLLCGATFHMCKESEHTLLCPLEQVPCLNSEYGCPLSMARHKLAKHLQVCPASVVCCSMEWIRWPNVDSETFLHENIMKETPSEECLDTALALQDQKVLFRSLKMVELFPETRDATEEEPDMNGDTSWEETGGAVGGVDARLAPNSCLPATSRQMMELSQEERDALAKTKEGMDLDKFGKWESMFSKEHAASVLTGSLGKSEDKNGDVAGKEQCSSNVRIGDAEGSAERRGPQESQKSQELPATMEMTGLAPWQDGVLERLKTAVDAKDYNMYLVHNGRMLIHFGQMPACTPKERDFVYGNLEAQEVKTVYTFKIPVSYCGKRARLGDAMLKCRPSEHKAVDTSDLGISVEDLPKSDLIKTTLQCALERELKGHVISESRSIDGLFMDLATQTYNFEPEQFSSETVLADLLGTAQPGGLHVELHSECVTRRHNKSSSAFTFTCNKFFRRDEFPLHFKNVHTDIQSSLDGWFQHRCPLAYLGCTFVQNHFRPPGQKAKVIYSQELKTFAIKPEVAPELSEKWKSDHLSGRDGKSLNSLTSLPLEVLQYIAGFLDSISLSQLSQVSVLMRNICATLLQERGMVLSQWKKKRYSHGGTSWKVHNQIWQFSSLFSKINSWEFNDVTSMSEHLKTCPFNIVERKTDPIRLTSMCQPQEKARESLVSTFRARPRGRHF
[3]
  in-vitro ubiquitination of recombinant IRS1 (streptavidin-HRP blot of His6-Biotin-ubiquitin): IRS1 can be ubiquitinated in a time-dependent manner

Source: US20120296403A1, “METHODS AND COMPOUNDS FOR MUSCLE GROWTH” (NOVARTIS AG, priority 2010, published 2012)
